# Assays:
# [1] = molecular target: cyclic nucleotide phosphodiesterase; test: Phosphodiesterase inhibitory activity (cyclic AMP hydrolysis); assay type: biochemical; conditions: read-out: IC50 (50% inhibition of cyclic nucleotide phosphodiesterase activity); cyclic AMP 0.10-1.0 μM, pH 7.4
# adult mongrel dogs = test: Cardiotonic activity in anesthetized dogs (myocardial contractile force, i.v.); assay type: in vivo; conditions: Canis lupus familiaris, iv, vs pretreatment control, read-out: CF: Percent increase in cardiac force; for change in vivo at 0.075 mg/kg: i.v. dose 0.075 mpk
# Description: The cardiotonic activity of the compounds was determined in accordance with the method of Alousi, A. A., et al., J. Cir. Res. 45, 666 (1979). Basically, adult mongrel dogs were anesthetized with sodium pentobarbital and artificially respired. Arterial pressure was recorded via a femoral artery and the pressure pulse used to trigger a cardiotachometer for heart rate. Left ventricular pressure was measured with a Millar catheter and dP/dt was derived. Cardiac output was determined by measuring ascending aortic blood flow with an electromagnetic flow probe and myocardial contractile force was measured with a Walton Brodie strain gauge sutured to the right ventricle. Lead II EKG was also recorded. A standard does of dopamine was administered to assess myocardial responsiveness. Test compounds were administered by i.v. infusion or bolus administration and the effects on cardiovascular parameters were determined. Dose-related effects of the test compound on BP, HR, dP/dt max., C.F. and C.O. were compared to pretreatment control values and expressed as a percentage change.
IC50 [1] [µM],SMILES,change in vivo at 0.47 mg/kg (adult mongrel dogs; i.v. dose 0.47 mpk) [%],change in vivo at 0.075 mg/kg (adult mongrel dogs) [%]
35,"Cc1cc2c(cc1C1=NNC(=O)CC1)OCC(=O)N2C [Example 43, 6-(3,4-Dihydro-4,6-dimethyl-3-oxo-1,4(2H)-benzoxazin-7-yl)-2,3,4,5-tetrahydropyridazin-3-one]",104,–
25,"O=C1CCC(c2ccc3c(c2)NC(=O)CS3)=NN1 [Example 53, 6-(3,4-Dihydro-3-oxo-1,4[2H]-benzothiazin-6-yl)-2,3,4,5-tetrahydropyridazin-3-one]",–,21
22,"CN1C(=O)CSc2ccc(C3=NNC(=O)CC3)cc21 [Example 54, 6-(3,4-Dihydro-4-methyl-3-oxo-1,4[2H]-benzothiazin-6-yl)-2,3,4,5-tetrahydropyridazin-3-one]",–,11

# — patent publication US5081242A, “6-benzoxazinyl- and 6-benzothiazinyl 2,3,4,5-tetrahydropyridazin-3-ones” (Ortho Pharmaceutical Corporation, priority 1991, dated 1992)
